Tests used:
[1] = Oral bio-availability and tissue distribution; conditions: in vivo
Aspergillus terreus AT49 [2] = assay: MIC, RPMI medium; type: cell-based; conditions: Aspergillus terreus, AT49, MIC banded into grades, read-out: MIC grade, A. terreus 49
In short: (§1)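 RPMI (2% glucose, 0.135 M MOPS, pH 7.0) microdilution; drug 50-0.05 mg/L doubling series; inoculum 1−2×10^4 cfu/mL; 24-48 h, 35° C; OD485; MIC = lowest conc. with >80% inhibition vs drug-free control.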

[3] = system: Aspergillus fumigatus AF293; assay: MIC, RPMI medium; type: cell-based; conditions: Aspergillus fumigatus, AF293, MIC banded into grades, read-out: MIC grade, A. fumigatus
In short: as §1

[4] = system: Aspergillus fumigatus AF210; assay: MIC, RPMI medium; type: cell-based; conditions: Aspergillus fumigatus, AF210, MIC banded into grades, read-out: MIC grade, A. fumigatus 210
In short: as §1

Aspergillus terreus AT4 [5] = assay: MIC, RPMI medium; type: cell-based; conditions: Aspergillus terreus, AT4, MIC banded into grades, read-out: MIC grade, A. terreus
In short: as §1

Aspergillus flavus [6] = assay: MIC, RPMI medium; type: cell-based; conditions: Aspergillus flavus, MIC banded into grades, read-out: MIC grade, A. flavus
In short: as §1

Aspergillus niger [7] = assay: MIC, RPMI medium; type: cell-based; conditions: Aspergillus niger, MIC banded into grades, read-out: MIC grade, A. niger
In short: as §1

[8] = system: Aspergillus and other filamentous fungi; assay: Activity in vitro against Aspergillus and other filamentous fungi; type: cell-based
A. fumigatus A1163 [9] = assay: Temporary (TI) neutropenic murine survival model of disseminated aspergillosis; type: in vivo, CD-1 mouse; conditions: for survival at day 18: TI model with prolonged observation; for survival at day 18 / survival benefit / survival: oral; for survival benefit / survival: TI survival model
Experimental: (§2) Methods: Temporary (TI) or persistently (PI) neutropenic CD-1 mouse models of disseminated aspergillus were used. 3 days post immunosuppression with cyclophosphamide (200 mg/kg ip) mice were infected IV with an LD90 challenge of A. fumigatus A1163. Treatment commenced 5 h post infection and animals were treated for 9 days and observed for either 2 days or 7 days following cessation of treatment. […] 2-(1,5-Dimethyl-3-phenyl-1H-pyrrol-2-yl)-N-{4-[4-(4,6-dimethyl-pyridin-2-yl)-piperazin-1-yl]-phenyl}-2-oxo-acetamide was dosed orally as a suspension in HPMC/Tween 80 once or twice daily. Caspofungin dosed IP was used as a comparator.

Aspergillus terreus AT49 [10] = assay: MIC, YAG medium; type: cell-based; conditions: Aspergillus terreus, 24 h at 35° C, MIC banded into grades, read-out: MIC grade, A. terreus 49
In short: (§3)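 OD 485 nm read-out after 24 h at 35° C; MIC = lowest concentration inhibiting growth >70% vs drug-free control, in mg/L. Inoculum 1−2×10^4 cfu/mL in YAG medium; drug range 50-0.05 mg/L, retested at 0.5-0.0005 mg/L when needed.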

[11] = system: Aspergillus fumigatus AF293; assay: MIC, YAG medium; type: cell-based; conditions: Aspergillus fumigatus, 24 h at 35° C, MIC banded into grades, read-out: MIC grade, A. fumigatus
In short: as §3

[12] = system: Aspergillus fumigatus AF210; assay: MIC, YAG medium; type: cell-based; conditions: Aspergillus fumigatus, 24 h at 35° C, MIC banded into grades, read-out: MIC grade, A. fumigatus 210
In short: as §3

Aspergillus terreus AT4 [13] = assay: MIC, YAG medium; type: cell-based; conditions: Aspergillus terreus, 24 h at 35° C, MIC banded into grades, read-out: MIC grade, A. terreus
In short: as §3

Aspergillus flavus [14] = assay: MIC, YAG medium; type: cell-based; conditions: Aspergillus flavus, 24 h, 24 h at 35° C, MIC banded into grades, read-out: MIC grade, A. flavus
In short: as §3

Aspergillus niger [15] = assay: MIC, YAG medium; type: cell-based; conditions: Aspergillus niger, 24 h at 35° C, MIC banded into grades, read-out: MIC grade, A. niger
In short: as §3

A. fumigatus A1163 [16] = assay: Persistently (PI) neutropenic murine survival model of disseminated aspergillosis; type: in vivo, CD-1 mouse; conditions: severe PI model, oral, 20 mg/kg BD
Experimental: as §2

Cc1cc(C)nc(N2CCN(c3ccc(NC(=O)C(=O)c4c(-c5ccccc5)cc(C)n4C)cc3)CC2)c1 [Example 1, 2-(1,5-Dimethyl-3-phenyl-1H-pyrrol-2-yl)-N-{4-[4-(4,6-dimethyl-pyridin-2-yl)-piperazin-1-yl]-phenyl}-2-oxo-acetamide]
tissue distribution [1]: good
oral bio-availability ([1]; po): good
MIC (Aspergillus terreus AT49 [2]): < 1 µg/mL
MIC [3]: < 1 µg/mL
MIC [4]: < 1 µg/mL
MIC (Aspergillus terreus AT4 [5]): < 1 µg/mL
MIC (Aspergillus flavus [6]): < 1 µg/mL
MIC (Aspergillus niger [7]): < 1 µg/mL
activity in vitro against Aspergillus and other filamentous fungi [8]: excellent activity
survival at day 18 (A. fumigatus A1163 [9]; 10 mg/kg BD): 80%
survival at day 18 (A. fumigatus A1163 [9]; 20 mg/kg OD): 70%
survival benefit (A. fumigatus A1163 [9]; 1.25 mg/kg per day): little benefit
survival benefit (A. fumigatus A1163 [9]; 2.5 mg/kg per day): little benefit
survival (A. fumigatus A1163 [9]; 5 mg/kg per day): 80%
survival (A. fumigatus A1163 [9]; 10 mg/kg/day): 90%
survival (A. fumigatus A1163 [9]; 20 mg/kg/day): 100%
survival (A. fumigatus A1163 [9]; 30 mg/kg/day): 100%
survival (A. fumigatus A1163 [9]; 40 mg/kg/day): 100%
efficacy compared with caspofungin (CAS) dosed IP (A. fumigatus A1163 [9]; in these models (TI and PI)): at least as effective as CAS
MIC (Aspergillus terreus AT49 [10]): < 1 µg/mL
MIC [11]: < 1 µg/mL
MIC [12]: < 1 µg/mL
MIC (Aspergillus terreus AT4 [13]): < 1 µg/mL
MIC (Aspergillus flavus [14]): < 1 µg/mL
MIC (Aspergillus niger [15]): < 1 µg/mL
survival at day 12 (A. fumigatus A1163 [16]): 70%

Reference: patent US8993574B2, “Pyrrole antifungal agents” (F2G Ltd, priority 2008, dated 2015)
